Test [1] deals with T1, HIV-1 integrase (Human immunodeficiency virus type 1 group M subtype B (isolate HXB2) (HIV-1), UniProt P04585). Briefly: biochemical. The test is classed as biochemical. Here is the method: The effect of each compound on HIV integrase activity was assayed using the “HIV-1 Integrase Assay Kit” version 2.0, catalogue number EZ-1700 obtained from XpressBio Life Science Products. Immediately prior to the start of the assay, both compounds were dissolved in dimethyl sulfoxide (DMSO) and used immediately in the HIV integration assay. The assay was performed according to the instructions listed by the manufacturer (XpressBio Life Science Products, Maryland, USA). In brief, the required streptavidin-coated strip wells were coated with DS oligo and placed overnight at 4° C. The plates were then incubated with integrase and followed by the addition of test articles at the desired concentration. The plates were developed using the supplied HRP antibody and TMB peroxidase substrate as per the manufacturer's instructions. The reactions were stopped with TMB stop solution and immediately read (<10 min) using a VICTOR XXX. The absorbance of each well was read at 450 nm for 0.5 sec. All measurements were performed in triplicate.
The background absorbance was subtracted from the raw data of each sample to yield “background corrected” absorbance values. […] The CV=% SD for the 100% integrase alone control.
To determine the IC50 of each test compound, non-linear regression analysis was used.
Because the top and the bottom plateaus can be defined by solid control data (eg. sodium azide), the data was fitted to a normalized model in order to calculate the IC50. […] Since 6 compound concentrations were tested in triplicate, the data was analyzed using the standard slope model, in contrast with the variable slope model.

In test [2] the target is T1, HIV-1 integrase. The test is described as follows: biochemical. The format is biochemical. Here is the method: The capacity of the compound to inhibit HIV integrase in a cell-free system was assessed. An HIV Integrase Assay System (XpressBio Life Science Products; Thurmont, Md., www.expressbio.com) was used. In brief, double-stranded HIV-1 donor substrate (the U5 long terminal repeat) was immobilized in 96-well plates. Recombinant HIV-1 integrase protein was added, along with an oligonucleotide target substrate. The integrase cleaves the donor substrate and integrates it into the target substrate, which is now in solution phase—the integrated product (the amount is indicative of integrase activity) was detected using an antibody specific for the recombinant target/donor sequence. Inhibitors added along with the donor substrate reduced the amount of product. […] The capacity of a compound known to inhibit HIV integrase activity (NaN3) was assessed as a positive control. All assessed inhibitions were compared to controls treated with vehicle only (compounds dissolved in 100% DMSO, then diluted in buffer to a maximum DMSO concentration of 0.1% DMSO).
However, it should be kept in mind that indirect HIV integrase inhibition (which might possibly occur in living cells) will not be detected.
COTI-HIV1Doxo was assayed for HIV-1 integrase activity, as described above. All measurements were made in quadruplicate (n=4) to allow statistical analysis of significance.
This is another data set of the same source.

The mark [3] stands for this setting: all concentrations tested (lowest 1 nM).

Values joined by “and” are separate entries in the source; they are usually repeats but may differ in a detail not shown here. Identical values can stand only once. “Also recorded” adds a separate entry of the source. Like-named read-outs stand apart in the source and are kept apart here.

For orientation: IC50 means the point on the concentration scale where inhibition reaches its midpoint. The compound `Cn1cnc(-c2nnc(Cc3ccc(F)cc3)o2)c(O)/c1=N\O` [COTI-HIV1DOxime, 6-[5-(4-fluoro-benzyl)-[1,3,4]oxadiazol-2-yl]-5-hydroxy-3-methyl-3H-pyrimidin-4-one oxime] displayed an IC50 at HIV-1 integrase [1] of 58.7 µM. Moreover, at HIV-1 integrase [1] (setting [3]), the “inhibition of HIV-1 integrase” value was “significantly inhibited HIV-1 integrase; also recorded: significantly inhibit HIV-1 integrase activity”.

Turning to `Cn1cnc(-c2nnc(Cc3ccc(F)cc3)o2)c(O)c1=O` [COTI-HIV1Doxo, 6-[5-(4-Fluoro-benzyl)-[1,3,4]oxadiazol-2-yl]-5-hydroxy-3-methyl-3H pyrimidin-4-one], at HIV-1 integrase [2], the concentration for half-maximal inhibition (IC50) is around 10 µM. Besides, the “effect on HIV-1 integrase activity” value is “enhanced HIV-1 integrase activity; also recorded: slightly but significantly enhanced HIV-1 integrase activity” on HIV-1 integrase [2] (1 nM, listed as COTI-HIV-1 ketone derivative); “inhibited HIV-1 integrase; also recorded: significantly reduce HIV-1 integrase activity” on HIV-1 integrase [2] (100 nM); “significantly decreased HIV-1 integrase activity” at HIV-1 integrase [2] (all higher tested concentrations (up to 100 μM)). Besides, the “complete inhibition of integrase activity” value at HIV-1 integrase [2] (up to 100 μM) is “not observed”.

Take `Cn1nc(-c2nnc(Cc3ccc(F)cc3)o2)/c(=N\O)c2ncccc21` [COTI-HIV1Oxime]: half-maximal inhibition against HIV-1 integrase [1] (IC50) required 23.9 µM. Moreover, at HIV-1 integrase [1] (at 100 μM), the “percent of the total control activity” value was found to be 34.82% and the “reduction in HIV-1 integrase activity” value is on record as “At least 50%”. Further, on HIV-1 integrase [1] (at 100 μM, listed as COTI-HIV28233), the “inhibition of HIV-1 integrase” value is recorded as “significantly inhibited HIV-1 integrase; also recorded: significantly reduce activity”. Also, the “inhibition of HIV-1 integrase activity” value against HIV-1 integrase [1] (at low concentrations) is “modestly inhibit HIV-1 integrase activity”.

Compound `Cn1nc(C(=O)NCc2ccc(F)cc2)/c(=N\O)c2ncccc21` [COTI-HIV28236] gave an IC50 against HIV-1 integrase [1] of 14 µM. At HIV-1 integrase [1] (setting [3]), the “inhibition of HIV-1 integrase” value is recorded as “significantly inhibited HIV-1 integrase; also recorded: significantly inhibit HIV-1 integrase activity”. The “reduction in HIV-1 integrase activity” value at HIV-1 integrase [1] (at 100 μM) is “At least 50%”.

As for `[N-]=[N+]=[N-].[Na+]` [sodium azide, reference compound], the “effect of positive control on HIV-1 integrase activity” value was “effectively decreased HIV-1 integrase activity” at HIV-1 integrase [2] (1.0% or 3.3%) and “effectively decrease HIV-1 integrase activity” at HIV-1 integrase [1] (positive control). The “calculated IC50 of sodium azide controls” value on HIV-1 integrase [1] (two controls run in parallel) was 0.12% and 0.14%. Further, the percent control activity at HIV-1 integrase [1] (with 10% sodium azide) was determined as 0%.

(Values after patent US8987272B2, “Compounds and method for treatment of HIV” (priority 2010, dated 2015).)
